# Experimental data published in patent publication US20200215074A1, “Method of Treatment of Cancer” (CIPLA LIMITED, priority 2017, published 2020).
# Legend:
# PAR-4 [1] = assay: In-vitro PAR-4 induction in mouse embryonic fibroblast cells (Western blot); type: cell-based; conditions: for PAR-4 secretion in the cell supernatant: 18-21 h incubation, Western blot
# Experimental: (§1) Mouse embryonic fibroblast cells were harvested from exponential phase cultures. After a 24 h recovery period to allow the cells to resume exponential growth the cells were treated with M of Pyronaridine followed by further 18-21 h of incubation. […] The samples were also subjected to SDS/PAGE and Coomassie blue staining to determine albumin levels in serum from the Conditioned Medium (CM) as another loading control.
# as §1, with “[…]” for “Pyronaridine”, “CM” for “Conditioned Medium (CM)”
# as §1, with “fibroblast” for “fibroblast cells”, “with 25 µM” for “with M”, “of Meloquine” for “of Pyronaridine”, “the cell supernatant” for “the Conditioned Medium (CM)”
# as §1, with “[…]” for “Pyronaridine”, “CM” for “Conditioned Medium (CM)”
# as §1, with “fibroblast” for “fibroblast cells”, “with 25 μM” for “with M”, “of Mebendazole” for “of Pyronaridine”, “the cell supernatant” for “the Conditioned Medium (CM)”
# as §1, with “fibroblast” for “fibroblast cells”, “with 25 µM” for “with M”, “of Tafenoquine” for “of Pyronaridine”, “the cell supernatant” for “the Conditioned Medium (CM)”
# The experiment was conducted as per method set in an Example 1.
# GRP-78 = assay: In-vitro GRP-78 induction in human ovarian and renal cancer cell lines (Western blot); type: cell-based; conditions: 25 μM, 18-21 h
# Experimental: (§2) Human ovarian cancer cell line SKOV-3 and renal cancer cell line 786-0 were harvested from exponential phase cultures. After a 24 h recovery period to allow the cells to resume exponential growth the cells were treated with 25 μM of Mefloquine followed by further 18-21 h of incubation. Induction of GRP-78 expression was checked in the cell lysate by subjecting the samples to Western blot analysis with antibodies specific for GRP-78.
# as §2, with “Mebendazole” for “Mefloquine”
# as §2, with “Tafenoquine” for “Mefloquine”
# PAR-4 [2] = assay: PAR-4 inducing activity, general statement of the inventors; type: cell-based, human and mouse; conditions: summary statement, no test details
# PAR-4 [3] = assay: In-vivo PAR-4 induction in C57/BL6 mice (systemic serum PAR-4); parameters: species or system mouse; conditions: blood 24 hrs later
# Experimental: Immunocompetent mice were orally administered with 10 mg/kg and 51.2 mg/kg body weight of Mefloquine or vehicle for 3 consecutive days followed by collection of blood 24 hrs later, serum separation and testing for systemic levels of PAR-4. Immunocompetent mice were orally administered with 1.5 mg/kg body weight of Narasin or vehicle for 3 consecutive days followed by collection of blood 24 hrs later, serum separation and testing for systemic levels of PAR-4.
# PAR-4 [4] = conditions: literature (Burikhanov et al. 2014); cited from earlier work
# PAR-4 [5] = conditions: at micromolar levels; cited from earlier work
# metastatic lung tumors = conditions: injected in mice; literature (Zhao et al. 2011); cited from earlier work
# [6] = 25 μM (25 M [sic] for Mefloquine and Tafenoquine)
# [7] = SKOV-3 human ovarian cancer cell line
molecule,measurement,setting,value
COc1cc(C)c2c(Oc3cccc(C(F)(F)F)c3)c(OC)cc(NC(C)CCCN)c2n1 (stereo not shown) [Tafenoquine],Dose dependence of PAR-4 induction,PAR-4 [1],Dose dependent induction of PAR-4
same,PAR-4 secretion in the cell supernatant,PAR-4 [1]; [6],able to induce robust PAR-4 secretion
same,Induction of PAR-4 in cell lysate,PAR-4 [1],Induction of PAR-4
same,GRP-78 expression in cell lysate,GRP-78; 786-0 renal cancer cell line,induced GRP-78 expression
same,GRP-78 expression in cell lysate,GRP-78; [7],induced GRP-78 expression
same,PAR-4 inducing activity,PAR-4 [2],found to possess PAR-4 inducing activity
Cc1cccc(C)c1OCC(=O)N[C@@H](Cc1ccccc1)[C@@H](O)C[C@H](Cc1ccccc1)NC(=O)[C@H](C(C)C)N1CCCNC1=O [Lopinavir],PAR-4 secretion in the cell supernatant,PAR-4 [1]; test concentration not given,able to induce robust PAR-4 secretion
same,PAR-4 inducing activity,PAR-4 [2],found to possess PAR-4 inducing activity
COc1ccc2nc3cc(Cl)ccc3c(Nc3cc(CN4CCCC4)c(O)c(CN4CCCC4)c3)c2n1 [Pyronaridine],Dose dependence of PAR-4 induction,PAR-4 [1],in a dose dependent manner
same,PAR-4 secretion in the cell supernatant,PAR-4 [1]; test concentration not given,able to induce robust PAR-4 secretion
same,PAR-4 inducing activity,PAR-4 [2],found to possess PAR-4 inducing activity
OC(c1cc(C(F)(F)F)nc2c(C(F)(F)F)cccc12)C1CCCCN1 (stereo not shown) [Mefloquine],PAR-4 secretion in the cell supernatant,PAR-4 [1]; [6],able to induce robust PAR-4 secretion
same,Elevation of PAR-4 in mouse serum relative to vehicle,PAR-4 [3]; oral 51.2 mg/kg for 3 consecutive days,induced robust elevation of PAR-4
same,GRP-78 expression in cell lysate,GRP-78; 786-0 renal cancer cell line,induced GRP-78 expression
same,GRP-78 expression in cell lysate,GRP-78; [7],induced GRP-78 expression
same,PAR-4 inducing activity,PAR-4 [2],found to possess PAR-4 inducing activity
CN(C)c1ccc2cc(-c3ccccc3F)c(N)nc2c1 [Arylquin-1],Secretion of PAR-4 from normal cells in mice,PAR-4 [4],can increase secretion of PAR-4
O=C(Nc1cc(Cl)cc2c1[nH]c1cnccc12)c1cccnc1 [PS-1145],Secretion of PAR-4 from normal cells in mice,PAR-4 [4],can increase secretion of PAR-4
C[C@@H]1CN(c2c(F)c(N)c3c(=O)c(C(=O)O)cn(C4CC4)c3c2F)C[C@H](C)N1 [Sparfloxacin],PAR-4 secretion in the cell supernatant,PAR-4 [1]; test concentration not given,able to induce robust PAR-4 secretion
same,PAR-4 inducing activity,PAR-4 [2],found to possess PAR-4 inducing activity
CCn1cc(C(=O)O)c(=O)c2ccc(C)nc21 [Nalidixic Acid],PAR-4 secretion in the cell supernatant,PAR-4 [1]; test concentration not given,able to induce robust PAR-4 secretion
same,PAR-4 inducing activity,PAR-4 [2],found to possess PAR-4 inducing activity
CCn1cc(C(=O)O)c(=O)c2cnc(N3CCNCC3)nc21 [Pipemidic Acid],PAR-4 secretion in the cell supernatant,PAR-4 [1]; test concentration not given,able to induce robust PAR-4 secretion
same,PAR-4 inducing activity,PAR-4 [2],found to possess PAR-4 inducing activity
COC(=O)Nc1nc2ccc(C(=O)c3ccccc3)cc2[nH]1 [Mebendazole],PAR-4 secretion in the cell supernatant,PAR-4 [1]; [6],able to induce robust PAR-4 secretion
same,Induction of PAR-4 in cell lysate,PAR-4 [1],Induction of PAR-4
same,GRP-78 expression in cell lysate,GRP-78; 786-0 renal cancer cell line,induced GRP-78 expression
same,GRP-78 expression in cell lysate,GRP-78; [7],induced GRP-78 expression
same,PAR-4 inducing activity,PAR-4 [2],found to possess PAR-4 inducing activity
COc1ccc(-c2ccc3cc(C(=O)O)ccc3c2)cc1C12CC3CC(CC(C3)C1)C2 [Adapalene],PAR-4 inducing activity,PAR-4 [2],found to possess PAR-4 inducing activity
CC[C@@H](C(=O)O)[C@@H]1O[C@@H]([C@@H](C)[C@H](O)[C@H](C)C(=O)[C@H](CC)[C@H]2O[C@]3(C=C[C@@H](O)[C@]4(CC[C@@](C)([C@H]5CC[C@](O)(CC)[C@H](C)O5)O4)O3)[C@H](C)C[C@@H]2C)[C@@H](C)C[C@@H]1C [Narasin],PAR-4 secretion in the cell supernatant,PAR-4 [1]; test concentration not given,able to induce robust PAR-4 secretion
same,Elevation of PAR-4 in mouse serum relative to vehicle,PAR-4 [3]; oral 1.5 mg/kg for 3 consecutive days,induced robust elevation of PAR-4
same,PAR-4 inducing activity,PAR-4 [2],found to possess PAR-4 inducing activity
COc1ccc(C2=N[C@@H](c3ccc(Cl)cc3)[C@@H](c3ccc(Cl)cc3)N2C(=O)N2CCNC(=O)C2)c(OC(C)C)c1 [Nutlin-3a],Secretion of PAR-4 from normal cells in mice,PAR-4 [4],can increase secretion of PAR-4
same,PAR-4 secretion in MEF cells,PAR-4 [5],stimulated PAR-4 secretion
CC(C)N1CCN(c2ccc(OCC3COC(Cn4cncn4)(c4ccc(Cl)cc4Cl)O3)cc2)CC1 (stereo not shown) [Terconazole],Dose dependence of PAR-4 induction,PAR-4 [1],in a dose dependent manner
same,PAR-4 secretion in the cell supernatant,PAR-4 [1]; test concentration not given,able to induce robust PAR-4 secretion
same,Induction of PAR-4 in cell lysate,PAR-4 [1],Induction of PAR-4
same,PAR-4 inducing activity,PAR-4 [2],found to possess PAR-4 inducing activity
"recombinant PAR-4: recombinant PAR-4 protein injected in mice to elevate extracellular PAR-4 (protein, UniProt Q96IZ0 1-340, looked up) PRKC apoptosis WT1 regulator …: MATGGYRTSSGLGGSTTDFLEEWKAKREKMRAKQNPPGPAPPGGGSSDAAGKPPAGALGTPAAAAANELNNNLPGGAPAAPAVPGPGGVNCAVGSAMLTRAAPGPRRSEDEPPAASASAAPPPQRDEEEPDGVPEKGKSSGPSARKGKGQIEKRKLREKRRSTGVVNIPAAECLDEYEDDEAGQKERKREDAITQQNTIQNEAVNLLDPGSSYLLQEPPRTVSGRYKSTTSVSEEDVSSRYSRTDRSGFPRYNRDANVSGTLVSSSTLEKKIEDLEKEVVRERQENLRLVRLMQDKEEMIGKLKEEIDLLNRDLDDIEDENEQLKQENKTLLKVVGQLTR",Effect on metastatic lung tumors,metastatic lung tumors,cause inhibition of metastatic lung tumors
